Consider 13 compounds from patent US9988361B2, “Anti-enterovirus 71 thiadiazolidine derivative” (JIANGSU KANION PHARMACEUTICAL CO. LTD, priority 2014, dated 2018).

This assay deals with EV71 virus strain Shenzhen/120F1/09. Briefly: EV71 in-vitro cytopathic effect (CPE) test. The format is cell-based, RD cells of human rhabdomyoma. As to conditions: Enterovirus A, 72 h; RD cells, EV71 100 TCID50, 3 days, CCK8 readout; read-out: EC50 by EC71 CPE test, EV71. How it is done:
Test of EV71 In-Vitro Cytopathic Effect (CPE) To test the in-vitro antiviral activity and cytotoxicity of a compound to HFMD virus EV71 by means of cytopathic effect (CPE) test. […] Cell line: RD cells of human rhabdomyoma • 3. Cell culture media: DMEM medium added with 10% serum, Penicillin/Streptomycin and L-[…]×) • 4. […] Cell inoculation: digest off the RD cells from the attached state, then dilute them with culture medium to a density of 80000/ml and inoculate 100 μl into the micro wells the 96-well plate. • 2. Dilution of compound: • Step 1: prepare the dry powder of a compound to test into a 10 mM solution in DMSO. Then dilute the compound by three times to eight concentration points. Dilute the reference compounds with the same method. • Step 2: further dilute the diluted solution of the compound in DMSO with cell culture medium. Add 10 μl DMSO solution for each well into 240 μl culture medium. • 3. Add the diluted compound solution by 50 μl each well into the 96-well plate inoculated with cells (double holes, final concentration of DMSO is 1%). • 4. Dilution of virus: dilute EV71 virus solution by 10000 times to a concentration of 100 TCID50/50 μl/. Add the diluted virus solution by 50 μl each well into the 96-well plate. Prepare another 96-well plate to replace the virus with culture medium and similarly inoculate the cells. Add the compound to test the toxicity of compound on cells. • 5. Cultivate the 96-well plate 3 days at the conditions of 37° C. and 5% CO2. • 6. EC50 and CC50 tests: add the cellular activity test reagent CCK8 into the micro-wells by 20 μl/well. Use ELIASA to read the absorbancy at the wavelength of 450 nm and 630 nm. • 7.
`CCO/N=C1\CCc2cc(OCCC(C)(C)CCN3CCN(c4ccnc(N)c4)S3(=O)=O)ccc21` [Embodiment 30, (E)-2-(2-amino-pyridin-4-yl)-5-(5-((1-(ethoxy-imino)-2,3-dihydro-1H-inden-5-yl)-oxy)-3,3-dimethylpentyl)-1,2,5-thiadiazolidine-1,1-dioxide]: the half-maximal effective concentration (EC50) is less than 0.05 µM. The result for `CCOc1noc2cc(OCCC(O)CCN3CCN(c4ccncc4)S3(=O)=O)ccc12` (stereo not shown) [Embodiment 71, 2-(5-((3-ethoxy-benzo[d]isoxazole-6-yl)-oxy)-3-hydroxy-pentyl)-5-(pyridin-4-yl)-1,2,5-thiadiazolidine-1,1-dioxide] reads 0.1 to 0.5 µM; that for `CCOc1noc2cc(OCCC(C)CCN3CCN(c4ccncc4)S3(=O)=O)ccc12` (stereo not shown) [Embodiment 15, 2-(5-((3-ethoxy-benzo[d]isoxazole-6-yl)-oxy)-3-methyl-pentyl)-5-(pyridin-4-yl)-1,2,5-thiadiazolidine-1,1-dioxide], less than 0.05 µM. The result for `CCO/N=C/c1ccc(OCCCCCN2CCN(c3ccnc(NC(C)=O)c3)S2(=O)=O)cc1` [Embodiment 36, (E)-N-(4-(5-(5-(4-((ethoxy-imino)-methyl)-phenoxy)-pentyl)-1,1-dioxide-1,2,5-thiadiazolidine-2-yl)-pyridin-2-yl)-acetamide] reads less than 0.05 µM; that for `Nc1cc(N2CCN(CCCCCOc3ccc(/C=N/OCC4CC4)cc3)S2(=O)=O)ccn1` [Embodiment 52], less than 0.05 µM; that for `CCO/N=C1\CCc2cc(OCCCCCN3CCN(c4ccncc4)S3(=O)=O)ccc21` [Embodiment 8], 0.05 to 0.1 µM. As for `CCO/N=C/c1ccc(OCCCCCN2CCN(c3ccc(C)nn3)S2(=O)=O)cc1` [Embodiment 33, (E)-4-((5-(5-(6-methyl-pyridazin-3-yl)-1,1-dioxide-1,2,5-thiadiazolidine-2-yl)-pentyl)-oxy)-benzaldehyde-O-ethyl ketoxime], the EC50 is 0.1 to 0.5 µM.

In the case of `O=S1(=O)N(CCCCC2CCc3cc(-c4ccc(Cl)cc4)ccc3O2)CCN1c1ccncc1` (stereo not shown) [Embodiment 19, 2-(4-(6-(4-chlorophenyl)-chroman-2-yl)-butyl)-5-(pyridin-4-yl)-1,2,5-thiadiazolidine-1,1-dioxide], the concentration for a half-maximal effect (EC50) fell in the range of 0.1 to 0.5 µM.

For `CCO/N=C/c1ccc(OCCCCCN2CCN(c3ccnc(N4CCC4)c3)S2(=O)=O)cc1` [Embodiment 42, (E)-4-((5-(5-(2-(azetidin-1-yl)-pyridin-4-yl)-1,1-dioxide-1,2,5-thiadiazolidine-2-yl)-pentyl)-oxy)-benzaldehyde-O-ethyl ketoxime], the EC50 lay within 0.1 to 0.5 µM. As to `Nc1cc(N2CCN(CCCCCOc3ccc(-c4noc(C(F)(F)F)n4)cc3)S2(=O)=O)ccn1` [Embodiment 68, 2-(2-amino-pyridin-4-yl)-5-(5-(4-(5 (trifluoromethyl)-1,2,4-oxadiazol-3-yl)-phenoxy)-pentyl)-1,2,5-thiadiazolidine-1,1-dioxide], the half-maximal effective concentration (EC50) lay in the range of 0.5 to 1 µM. The result for `CCc1nc(-c2ccc(OCCCCCN3CCN(c4ccncc4)S3(=O)=O)cc2)no1` [Embodiment 10, 2-(5-(4-(5-ethyl-1,2,4-oxadiazol-3-yl)-phenoxy)-pentyl)-5-(pyridin-4-yl)-1,2,5-thiadiazolidine-1,1-dioxide] reads 0.05 to 0.1 µM; that for `CCO/N=C1\CCc2cc(OCCCCCN3CCN(c4cc(N)ncc4F)S3(=O)=O)ccc21` [Embodiment 49, (E)-2-(2-amino-5-fluoro-pyridin-4-yl)-5-(5-((1-(ethoxy-imino)-2,3-dihydro-1H-indene-5-yl)-oxy)-pentyl)-1,2,5-thiadiazolidine-1,1-dioxide], 0.1 to 0.5 µM. The result for `CCOc1noc2cc(OCCCCCN3CCN(c4ccnc(N)c4)S3(=O)=O)ccc12` [Embodiment 28, 4-(5-(5-((3-ethoxy-1,2-benzoxazol-6-yl)-oxy)-pentyl)-1,1-dioxide-1,2,5-thiadiazolidine-2-yl)-pyridin-2-amine] reads less than 0.05 µM.
